Reference: PMC6368403, “Identification of a bilirubin receptor that may mediate a component of cholestatic itch” (eLife, 2019)
Several values for one entry are separate records, joined by “and”; a condition that tells them apart may be missing. Equal values may be shown once.

Legend:
mice = assay: Cheek injection model: scratching bouts and wiping; type: in vivo, mouse; conditions: injected into cheek: 1.3 mM deoxycholic acid, 4 mM LPA
Protocol: All applicable behavioral tests were performed and analysed with the experimenter blind to genotype. […] There were no significant differences in itch between male and female mice. […] On the day before the experiment, animals were placed in the test chamber for 30 min before being subjected to a series of three mock injections with 5 min break periods in between. On the day of the experiment, animals were first allowed to acclimatize to the test chamber for 10 min before injection. […] A bout of scratching was defined as a continuous scratching movement with either hindpaw directed at the area of the injection site. In the cheek injection model, a wipe was defined as a single forepaw stroking the site of the injection. Use of both forepaws on the face or cheek was considered as grooming behavior. […] For H1R block, 30 mg/kg of cetirizine HCl (pH 7.4) was given intraperitoneally thirty minutes prior to injection of bilirubin. Licking behavior was quantified in seconds and identified as the licking of the toes or footpad of the hind paw site of injection that was neither preceded nor followed by licking of any other portion of the body.

DRG neurons = assay: Ca2+ imaging of cultured DRG neurons; type: cell-based, mouse
Protocol: All cultured cells were maintained in DMEM supplemented with 10% FBS and 1% Penicillin/Streptomycin at 37°C, 5% CO2. […] Cells were imaged in calcium imaging buffer (CIB; 10 mM HEPES, 1.2 mM NaHCO3, 130 mM NaCl, 3 mM KCl, 2.5 mM CaCl2, 0.6 mM MgCl2, 20 mM glucose, and 20 mM sucrose at pH 7.4 and 290–300 mOsm). To monitor changes in intracellular [Ca^2+] ([Ca^2+]i), cells were loaded with either Fura 2-AM (HEK293 cells) or Fluo 4-AM (DRG neurons and mast cells) for 30 min in the dark at 37°C in CIB just prior to imaging. With Fura 2-AM, emission at 510 nm was monitored from excitation at both 340 nm and 380 nm. With Fluo 4-AM, emission at 520 nm was monitored from excitation at 488 nm. Cells were identified as responding if the intracellular [Ca^2+] rose by either 50% compared to baseline or 50% compared to the [Ca^2+]i change assayed during addition of 50 mM KCl (neurons only). Damaged, detached, high-baseline, and motion-activated cells were excluded from analysis.
DRGs were incubated with Fluo-4 AM 24 hr after dissociation (native genotype) or 48 hr after dissociation (virally transduced). Unless otherwise noted, cells were imaged for 20 seconds to establish a baseline before compounds were added. After 30 s, a 2 min wash was applied before addition of another substances. At the end of every imaging trial, 50 mM KCl was added as a positive control. […] For ruthenium red inhibitor experiments, neurons were incubated with 10 µM ruthenium red for 5 min prior to imaging. Percentage activated was determined as earlier described.
DRG neurons from all spinal levels were collected in cold DH10 media (90% Dulbecco’s modified Eagle’s medium (DMEM)/F-12, 10% FBS, penicillin (100 U/mL), and streptomycin (100 μg/mL)). DRGs were digested with a dispase (5 mg/ml)/collagenase type I (1 mg/ml) enzyme mixture at 37°C for 45 min. After trituration, cells were spun at 300 g and re-suspended in DH10 before being plated on glass coverslips coated with poly-D-lysine (0.5 mg/ml) and laminin (10 μg/ml, Invitrogen). DRGs were cultured with DH10 supplemented with 50 ng/mL NGF at 37°C.

MRGPRC11 [1] = molecular target: T1, MRGPRC11 (Mus musculus, UniProt Q8CIP3); assay: Microscale thermophoresis binding to MRGPRC11; conditions: mean of n=3, Fig 2-O
T1 construct: expressed in transfected cells
T1 sequence (Q8CIP3 1-322): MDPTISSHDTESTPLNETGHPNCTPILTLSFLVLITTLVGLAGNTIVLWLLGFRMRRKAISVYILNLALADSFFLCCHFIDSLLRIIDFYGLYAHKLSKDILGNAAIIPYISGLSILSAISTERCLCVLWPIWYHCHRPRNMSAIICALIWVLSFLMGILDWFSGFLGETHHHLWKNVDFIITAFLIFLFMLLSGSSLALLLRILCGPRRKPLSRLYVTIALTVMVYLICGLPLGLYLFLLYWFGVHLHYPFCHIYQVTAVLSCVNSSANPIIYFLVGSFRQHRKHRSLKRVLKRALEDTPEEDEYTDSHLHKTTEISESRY
Protocol: Binding isotherms for MRGPRA1, MRGPRX4, and MRGRPC11 towards various ligands were determined by microscale thermophoresis with the NanoTemper monolith NT.115 instrument ([Duhr and Braun, 2006]). Ligands were pre-incubated with 10 µM of the GFP-tagged receptor of interest for 5 min at room temperature in binding buffer (20 mM Tris and 150 mM NaCl at pH 8.8). Receptors were crudely purified as a membrane fraction from cells stably expressing the receptor ([Vasavda et al., 2017]). Haem metabolites were freshly dissolved in 0.1 M NaOH in dim light and then diluted into assay buffer. Lyophilized BAM8-22 was dissolved in binding buffer. The pH of each ligand was evaluated prior to incubation with a receptor. Samples were loaded into NT.115 Hydrophobic-Treated Capillaries from NanoTemper. Microscale thermophoretic experiments were executed using 20% LED power and 15% MST power. KDs were calculated using the law of mass action with data from three independent experiments. Binding between bilirubin and receptors was evaluated purely thermophoretically, whereas binding between BAM8-22 and MRGPRC11 was evaluated by T-Jump. Samples with dramatic deviations in initial fluorescence were excluded.

MRGPRC11 [2] = molecular target: T1, MRGPRC11; assay: Ca2+ imaging and concentration-Ca2+ response in HEK293 cells expressing MRGPRC11; type: cell-based; conditions: three replicates, Fig 2-N
Protocol: All cultured cells were maintained in DMEM supplemented with 10% FBS and 1% Penicillin/Streptomycin at 37°C, 5% CO2. All data included were generated from cells tested for mycoplasma and found to be negative. Cells were imaged in calcium imaging buffer (CIB; 10 mM HEPES, 1.2 mM NaHCO3, 130 mM NaCl, 3 mM KCl, 2.5 mM CaCl2, 0.6 mM MgCl2, 20 mM glucose, and 20 mM sucrose at pH 7.4 and 290–300 mOsm). To monitor changes in intracellular [Ca^2+] ([Ca^2+]i), cells were loaded with either Fura 2-AM (HEK293 cells) or Fluo 4-AM (DRG neurons and mast cells) for 30 min in the dark at 37°C in CIB just prior to imaging. With Fura 2-AM, emission at 510 nm was monitored from excitation at both 340 nm and 380 nm. With Fluo 4-AM, emission at 520 nm was monitored from excitation at 488 nm. Cells were identified as responding if the intracellular [Ca^2+] rose by either 50% compared to baseline or 50% compared to the [Ca^2+]i change assayed during addition of 50 mM KCl (neurons only). Damaged, detached, high-baseline, and motion-activated cells were excluded from analysis.
In initial screens, HEK293 cells stably expressing the murine G-protein alpha-subunit Gα15, a unique Gα protein that non-selectively couples a large variety of GPCRs to phospholipase C ^30, were plated on poly-D-lysine-coated coverslips and transiently transfected with constructs encoding the MRGRPR of interest. 12–24 hr later, cells were loaded with the Fura 2-AM. Unless otherwise specified, compounds were perfused into the imaging chamber for approximately thirty seconds after a baseline period was established. Response was then monitored at 5 s intervals for an additional 60 s.
HEK293 cells stably expressing either MRGPRA1, MRGPRX4, and MRGRPC11 were seeded in poly-D-lysine-coated 96-well plates at 10,000 cells/well. Cells were loaded with Fura 2–AM, washed twice, and maintained in CIB. Haem metabolites were freshly dissolved in DMSO in dim light and then diluted into a buffer comprised of 20 mM Tris and 150 mM NaCl at pH 8.8. Potential changes in pH were evaluated prior to each experiment. EC50 values were determined from dose-responses performed in triplicate, repeated 2–4 times. To determine potential antagonism by QWF against bilirubin, cells were treated with varying doses of QWF for 1 min in CIB prior to application of agonist.
HEK293 stable cell lines expressing GFP-tagged MRGPRA3, MRGPRC11, MRGPRD, MRGPRX1, and MRGPRX2 were generated in previously described reports ([Liu et al., 2009]; [Liu et al., 2012]; [McNeil et al., 2015]). Briefly, plasmids containing the receptor of interest were transfected into HEK cells using Lipofectamine 3000. After 3 days, cells were then selected using 0.5 mg/mL G418. After 3 weeks, monoclonal colonies were established and each the highest expressing clones were identified. For this study, Mrgpra1 and MRGPRX4 were inserted into pEGFP-N1 and transfected into HEK293 cells. MRGPR-positive cells were selected using 0.5 mg/mL G418 for three weeks, after which GFP-positive cells were sorted by FACS and monoclonally expanded. Two lines expressing similar levels of MRGPRA1 and MRGPRX4, as measured by GFP fluorescence, were selected for study.

C[C@H](CCC(=O)O)[C@H]1CC[C@H]2[C@@H]3CC[C@@H]4C[C@H](O)CC[C@]4(C)[C@H]3C[C@H](O)[C@]12C [deoxycholic acid, reference compound]
Scratching in WT versus Mrgpr-cluster KO animals (mice): equivalent degrees of scratching in WT and Mrgpr-cluster KO animals

N.N.N.N.N.N.N.N.N.N.N.N.N.N.[Cl-].[Cl-].[Cl-].[Cl-].[Cl-].[Cl-].[O-2].[O-2].[Ru+3].[Ru+3].[Ru+4] [ruthenium red, reference compound]
Effect on activation of sensory neurons by bilirubin (DRG neurons; 10 µM ruthenium red, 50 µM bilirubin): prevented bilirubin from activating sensory neurons
Percent activated neurons by 50 µM bilirubin (DRG neurons; WT neurons incubated with 10 µM ruthenium red (Fig 4G)): 0.73%

BAM8-22 [reference compound]
microscale thermophoresis response (binding isotherm), mean (MRGPRC11 [1]; [Ligand] 4.88e-8 M): 0.2221
microscale thermophoresis response (binding isotherm), mean (MRGPRC11 [1]; [Ligand] 9.77e-8 M): 0.7996
microscale thermophoresis response (binding isotherm), mean (MRGPRC11 [1]; [Ligand] 1.953e-7 M): 0.1618
microscale thermophoresis response (binding isotherm), mean (MRGPRC11 [1]; [Ligand] 3.906e-7 M): -0.3098
microscale thermophoresis response (binding isotherm), mean (MRGPRC11 [1]; [Ligand] 7.813e-7 M): -0.7916
microscale thermophoresis response (binding isotherm), mean (MRGPRC11 [1]; [Ligand] 1.5625e-6 M): -0.6624
microscale thermophoresis response (binding isotherm), mean (MRGPRC11 [1]; [Ligand] 3.125e-6 M): -0.9001
microscale thermophoresis response (binding isotherm), mean (MRGPRC11 [1]; [Ligand] 6.25e-6 M): -0.5948
microscale thermophoresis response (binding isotherm), mean (MRGPRC11 [1]; [Ligand] 1.25e-5 M): -2.488
microscale thermophoresis response (binding isotherm), mean (MRGPRC11 [1]; [Ligand] 2.5e-5 M): -2.079
microscale thermophoresis response (binding isotherm), mean (MRGPRC11 [1]; [Ligand] 5e-5 M): -2.779
microscale thermophoresis response (binding isotherm), mean (MRGPRC11 [1]; [Ligand] 0.0001 M): -3.797
Ca2+ response (concentration-Ca2+ response curve), replicate values (MRGPRC11 [2]; [Ligand] 1.95313e-7 M): 1.675 (2×) and 1.799
Ca2+ response (concentration-Ca2+ response curve), replicate values (MRGPRC11 [2]; [Ligand] 3.90625e-7 M): 1.633 and 1.596 and 1.826
Ca2+ response (concentration-Ca2+ response curve), replicate values (MRGPRC11 [2]; [Ligand] 7.8125e-7 M): 1.6619 and 1.688 and 1.837
Ca2+ response (concentration-Ca2+ response curve), replicate values (MRGPRC11 [2]; [Ligand] 1.5625e-6 M): 1.91 and 1.851 and 1.839
Ca2+ response (concentration-Ca2+ response curve), replicate values (MRGPRC11 [2]; [Ligand] 3.125e-6 M): 2.508 and 1.957 and 1.844
Ca2+ response (concentration-Ca2+ response curve), replicate values (MRGPRC11 [2]; [Ligand] 6.25e-6 M): 2.578 and 3.436 and 2.313
Ca2+ response (concentration-Ca2+ response curve), replicate values (MRGPRC11 [2]; [Ligand] 1.25e-5 M): 4.631 and 2.839 and 3.888
Ca2+ response (concentration-Ca2+ response curve), replicate values (MRGPRC11 [2]; [Ligand] 2.5e-5 M): 3.332 and 3.664 and 3.933

lysophosphatidic acid [LPA, reference compound]
Scratching in WT versus Mrgpr-cluster KO animals (mice): equivalent degrees of scratching in WT and Mrgpr-cluster KO animals
